Experimental data from publication PMC6193938, “Characterization of a novel AICARFT inhibitor which potently elevates ZMP and has anti-tumor activity in murine models” (Scientific Reports, 2018).
Entries after “also recorded” stand apart in the source; their conditions may differ. Read-outs that look alike come from different tables or passages of the source.

How the values were obtained:
A549 (lung) = assay: MS detection of ZMP in cultured cells; assay type: cell-based; details: Homo sapiens, 16 hours
Protocol: (§1) Cells lines were acquired from cell banks, see supplemental material, grown using the cell banks recommended culture conditions (Supplemental Table 3). In some experiments noted “low folate” the cells were washed and grown in folate free RPMI-1640 media (Gibco #27016-021) supplemented with 5 ml 1 M Hepes, 5 ml 100 mM Na pyruvate, 2.5 mg/ml glucose and 10% defined FBS (Hyclone #SH30070) per 500 mL media for 5–7 days to deplete intracellular folate levels prior to the start of the experiment. Where noted, cells were maintained in complete “high folate” RPMI-1640 media (ATCC #30-2001) with 10% defined FBS to contrast with the low folate conditions.
(§2) ZMP was detected in cultured cells via mass spec analysis. Cells were plated in 96-well plates at 25,000 cells per well in 100 µL with either high or low folate RPMI media and incubated overnight at 37 °C with 5% CO2. Cells were treated with inhibitor compounds for 16 hours, 0.5% DMSO final concentration. Growth media was decanted and cells were lysed for 10 min at room temperature with 50 µL per well of 1x Sure Fire Lysis buffer (Perkin Elmer, SureFire kit component). Aliquots (40 µL) of standard or sample were combined in a deep 96-well plate with 160 µL of internal standard solution containing ^13C5-ZMP (custom synthesis) and ^13C5-AICAr (custom synthesis) at 100 ng/mL in 40 mM ammonium acetate, pH 4. 400 µL of dichloromethane was added to each sample. Samples were sealed, vortexed for 5 minutes, and placed in the refrigerator for at least 30 minutes. The samples were centrifuged at 4 °C for 10 minutes at 16,600 g. 75 µL of the aqueous layer were transferred to a clean 96-well plate and seal prior to analysis.
(§3) The LC-MS method utilizes a Shimadzu Prominence 20 A HPLC system connected to an AB Sciex 5500™ or an AB Sciex 6500™ triple quadrupole mass spectrometer. Extracted samples were separated using a Thermo Hypercarb™ Javelin guard column (2.1 × 20 mm, 5 µm) with an injection volume of 15 µL and a flow rate of 1 mL/minute.
(§4) ZMP, AICAr and dUMP were detected using positive ion TurboIonSpray® multiple reaction monitoring mode and the data were processed with AB Sciex MultiQuant™. Back-calculated ZMP concentrations were fit to a four-parameter logistic equation using ACTIVITYBASE 4.0 to determine EC50 values relative to the maximum observed metabolite levels.

NCI-H1437 (lung) = assay: MS detection of ZMP in cultured cells; assay type: cell-based; details: Homo sapiens, 16 hours
Protocol: as §1, §2, §3, §4

NCI-H1299 = assay: MS detection of ZMP in cultured cells; assay type: cell-based; details: Homo sapiens, low folate RPMI media, 16 hours
Protocol: as §1, §2, §3, §4

NCI-H1155 (lung) = assay: MS detection of ZMP in cultured cells; assay type: cell-based; details: Homo sapiens, 16 hours
Protocol: as §1, §2, §3, §4

A101D (melenoma) = assay: MS detection of ZMP in cultured cells; assay type: cell-based; details: Homo sapiens, low folate RPMI media, 16 hours
Protocol: as §1, §2, §3, §4

NCI-H1993 (lung) = assay: MS detection of ZMP in cultured cells; assay type: cell-based; details: Homo sapiens, low folate RPMI media, 16 hours
Protocol: as §1, §2, §3, §4

PDGFRa = target: T1, PDGFRa (Homo sapiens, UniProt P16234); assay: CEREP protein kinase assay; assay type: biochemical
T1 construct: purchased CEREP Panlabs (Eurofins)

A9 cells = assay: MS detection of ZMP and dUMP in cultured cells; assay type: cell-based, murine
Protocol: To mimic human plasma levels, low folate media is traditionally used in which the folate comes only from the defined fetal bovine serum. […] Because LSN3213128 would be dosed in mice on normal diet, cell line screening was performed under standard tissue culture conditions to identify cell lines sensitive to treatment under high folate conditions. In order to compare tissue culture values with tumor levels, an average 4 pL cell volume[36] was used to calculate cellular ZMP concentrations. In MDA-MB-231[…] cells using regular RPMI, the peak intracellular ZMP levels are about 770 μM while in the salvage deficient A9 cells ZMP is 6,500 μM. […] It is not surprising that in vivo in mice on standard chow where folate plasma levels are >10-fold lower than tissue culture that tumor ZMP levels are also lower. […] ZMP was detected in cultured cells via mass spec analysis. Cells were plated in 96-well plates at 25,000 cells per well in 100 μL with either high or low folate RPMI media and incubated overnight at 37 °C with 5% CO2. Cells were treated with inhibitor compounds for 16 hours, 0.5% DMSO final concentration. Growth media was decanted and cells were lysed for 10 min at room temperature with 50 μL per well of 1x Sure Fire Lysis buffer (Perkin Elmer, SureFire kit component). […] Samples were sealed, vortexed for 5 minutes, and placed in the refrigerator for at least 30 minutes. The samples were centrifuged at 4 °C for 10 minutes at 16,600 g. 75 μL of the aqueous layer were transferred to a clean 96-well plate and seal prior to analysis. The LC-MS method utilizes a Shimadzu Prominence 20 A HPLC system connected to an AB Sciex 5500TM or an AB Sciex 6500TM triple quadrupole mass spectrometer. […] […] dUMP were detected using positive ion TurboIonSpray® multiple reaction monitoring mode and the data were processed with AB Sciex MultiQuantTM. Back-calculated ZMP concentrations were fit to a four-parameter logistic equation using ACTIVITYBASE 4.0 to determine EC50 values relative to the maximum observed metabolite levels.

MAPKAPK5 = target: T2, MAPKAPK5 (Homo sapiens, UniProt Q8IW41); assay: CEREP protein kinase assay; assay type: biochemical
T2 construct: purchased CEREP Panlabs (Eurofins)
T2 sequence (Q8IW41 1-473): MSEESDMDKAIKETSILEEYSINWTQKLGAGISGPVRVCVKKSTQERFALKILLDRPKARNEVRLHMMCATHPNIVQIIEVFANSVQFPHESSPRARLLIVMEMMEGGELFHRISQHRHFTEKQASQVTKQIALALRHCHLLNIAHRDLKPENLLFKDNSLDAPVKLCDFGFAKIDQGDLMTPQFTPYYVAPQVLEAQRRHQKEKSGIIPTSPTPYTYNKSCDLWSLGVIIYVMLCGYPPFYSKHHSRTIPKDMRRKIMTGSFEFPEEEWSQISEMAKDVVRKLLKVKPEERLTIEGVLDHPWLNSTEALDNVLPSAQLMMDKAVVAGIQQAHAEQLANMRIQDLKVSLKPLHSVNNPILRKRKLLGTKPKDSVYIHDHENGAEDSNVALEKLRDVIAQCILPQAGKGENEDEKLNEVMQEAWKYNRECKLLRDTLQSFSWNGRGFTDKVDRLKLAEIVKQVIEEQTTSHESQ

PKCb2 = target: T3, PKCb2 (Homo sapiens, UniProt P05771); assay: CEREP protein kinase assay; assay type: biochemical
T3 construct: purchased CEREP Panlabs (Eurofins)

[1] = RPMI media, read-out: ZMP EC50 Regular folate
[2] = low folate RPMI media, read-out: ZMP EC50 Low folate

T1 sequence (P16234 24-1089): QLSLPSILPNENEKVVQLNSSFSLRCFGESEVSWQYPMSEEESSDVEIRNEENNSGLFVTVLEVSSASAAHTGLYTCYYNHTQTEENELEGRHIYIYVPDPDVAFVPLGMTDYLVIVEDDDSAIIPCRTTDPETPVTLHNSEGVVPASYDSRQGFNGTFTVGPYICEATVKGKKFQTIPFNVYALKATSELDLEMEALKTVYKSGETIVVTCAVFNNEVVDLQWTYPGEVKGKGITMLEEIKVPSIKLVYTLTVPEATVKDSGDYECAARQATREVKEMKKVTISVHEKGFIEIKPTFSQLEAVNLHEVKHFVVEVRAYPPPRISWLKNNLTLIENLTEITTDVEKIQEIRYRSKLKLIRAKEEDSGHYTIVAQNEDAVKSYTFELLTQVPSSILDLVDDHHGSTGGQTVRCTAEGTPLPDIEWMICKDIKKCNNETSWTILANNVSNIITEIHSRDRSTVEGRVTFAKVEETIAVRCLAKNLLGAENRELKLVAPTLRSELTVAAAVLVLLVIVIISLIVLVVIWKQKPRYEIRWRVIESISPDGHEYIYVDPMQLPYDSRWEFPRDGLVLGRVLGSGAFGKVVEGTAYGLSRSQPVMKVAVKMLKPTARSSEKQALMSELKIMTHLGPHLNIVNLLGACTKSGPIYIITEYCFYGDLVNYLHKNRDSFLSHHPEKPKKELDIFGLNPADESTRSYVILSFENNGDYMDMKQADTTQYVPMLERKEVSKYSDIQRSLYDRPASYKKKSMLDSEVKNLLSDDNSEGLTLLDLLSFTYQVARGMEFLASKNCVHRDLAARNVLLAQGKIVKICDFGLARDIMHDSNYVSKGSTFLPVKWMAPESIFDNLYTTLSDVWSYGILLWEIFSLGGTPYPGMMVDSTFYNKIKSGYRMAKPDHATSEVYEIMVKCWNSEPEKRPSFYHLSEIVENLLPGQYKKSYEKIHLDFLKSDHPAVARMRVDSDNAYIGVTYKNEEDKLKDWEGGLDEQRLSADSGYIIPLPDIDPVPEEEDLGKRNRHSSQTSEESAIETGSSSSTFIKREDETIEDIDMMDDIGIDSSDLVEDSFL
T3 sequence (P05771 1-673 isoform P05771-2): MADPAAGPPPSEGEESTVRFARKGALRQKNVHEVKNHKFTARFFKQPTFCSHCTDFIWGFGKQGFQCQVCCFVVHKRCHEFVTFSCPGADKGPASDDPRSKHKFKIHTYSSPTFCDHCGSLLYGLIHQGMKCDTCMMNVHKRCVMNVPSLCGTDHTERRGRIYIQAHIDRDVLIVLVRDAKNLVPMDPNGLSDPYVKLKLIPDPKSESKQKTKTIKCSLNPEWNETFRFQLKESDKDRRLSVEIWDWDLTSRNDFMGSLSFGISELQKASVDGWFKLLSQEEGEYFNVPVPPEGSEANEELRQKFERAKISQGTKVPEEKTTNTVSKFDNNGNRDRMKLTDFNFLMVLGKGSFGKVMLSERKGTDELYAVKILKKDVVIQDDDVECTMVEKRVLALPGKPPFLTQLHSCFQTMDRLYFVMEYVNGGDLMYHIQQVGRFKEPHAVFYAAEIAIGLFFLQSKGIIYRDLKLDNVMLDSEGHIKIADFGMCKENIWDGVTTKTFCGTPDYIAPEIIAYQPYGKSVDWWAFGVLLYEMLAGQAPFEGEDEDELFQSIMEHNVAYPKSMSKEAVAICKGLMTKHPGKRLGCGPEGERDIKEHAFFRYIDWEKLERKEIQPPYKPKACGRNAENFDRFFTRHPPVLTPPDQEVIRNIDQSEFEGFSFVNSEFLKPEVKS

O=c1[nH]ccc2cc(F)c(NS(=O)(=O)c3ccc(N4CC[C@@H](O)C4)s3)cc12 [LSN3213128, N-(6-Fluoro-1-oxo-1,2-dihydroisoquinolin-7-yl)-5-[(3R)-3-hydroxypyrrolidin-1-yl]thiophene-2-sulfonamide]
EC50 (A549 (lung); [1]): 3100 nM
EC50 (A549 (lung); [2]): 10 nM
EC50 (NCI-H1437 (lung); [1]): 620 ± 354 nM
EC50 (NCI-H1437 (lung); [2]): 4.6 nM
EC50 (NCI-H1299): 4.1 nM
EC50 (NCI-H1155 (lung); [1]): 380 nM
EC50 (NCI-H1155 (lung); [2]): 2.3 nM
EC50 (A101D (melenoma)): 2.3 nM
EC50 (NCI-H1993 (lung)): 7.1 nM
inhibition at 0.2 µM (PDGFRa; @ 0.2 uM): -10.5%
inhibition at 2 µM (PDGFRa; @ 2 uM): 12.3%
inhibition at 20 µM (PDGFRa; @ 20 uM): 44.9%
dUMP levels in tissue culture (A9 cells; A9): No changes; also recorded: does not alter
peak intracellular ZMP levels (A9 cells; A9 cells, calculated with 4 pL cell volume): 6,500 μM
inhibition at 0.2 µM (MAPKAPK5; @ 0.2 uM): 3.51%
inhibition at 2 µM (MAPKAPK5; @ 2 uM): 13.3%
inhibition at 20 µM (MAPKAPK5; @ 20 uM): -3.2%
inhibition at 0.2 µM (PKCb2; @ 0.2 uM): -3.72%
inhibition at 2 µM (PKCb2; @ 2 uM): -1.04%
inhibition at 20 µM (PKCb2; @ 20 uM): -3.76%
